In ChEMBL document CHEMBL3112480, “γ-Alkylidene-γ-lactones and isobutylpyrrol-2(5H)-ones analogues to rubrolides as inhibitors of biofilm formation by gram-positive and gram-negative bacteria” (Bioorg Med Chem Lett, 2014):
Values after ≈ are worked out from the molar mass of the structure shown. One block for each compound: values may come before it.

Experiments:
[1] = test system: Staphylococcus epidermidis; test: Antibacterial activity against Staphylococcus epidermidis ATCC 35547 assessed as effect on planktonic growth at 1.37 ug/ml after 20 hrs relative to control; type: functional
Staphylococcus aureus [2] = test: Antibacterial activity against Staphylococcus aureus ATCC 25923 assessed as effect on planktonic growth at 0.17 ug/ml after 20 hrs relative to control; type: functional
Staphylococcus aureus [3] = test: Antibacterial activity against Staphylococcus aureus ATCC 25923 assessed as effect on planktonic growth at 10.9 ug/ml after 20 hrs relative to control; type: functional
Staphylococcus aureus [4] = test: Antibacterial activity against Staphylococcus aureus ATCC 25923 assessed as effect on planktonic growth at 1.37 ug/ml after 20 hrs relative to control; type: functional
[5] = test system: Staphylococcus epidermidis; test: Antibacterial activity against Staphylococcus epidermidis ATCC 35547 assessed as effect on planktonic growth at 0.17 ug/ml after 20 hrs relative to control; type: functional
Streptococcus mutans [6] = test: Antibacterial activity against Streptococcus mutans ATCC 25175 assessed as effect on planktonic growth at 0.34 ug/ml after 20 hrs relative to control; type: functional
Streptococcus mutans [7] = test: Antibacterial activity against Streptococcus mutans ATCC 25175 assessed as effect on planktonic growth at 43.8 ug/ml after 20 hrs relative to control; type: functional
[8] = test system: Staphylococcus epidermidis; test: Antibacterial activity against Staphylococcus epidermidis ATCC 35547 assessed as effect on planktonic growth at 5.5 ug/ml after 20 hrs relative to control; type: functional
Pseudomonas aeruginosa [9] = test: Antibacterial activity against Pseudomonas aeruginosa ATCC 27853 assessed as effect on planktonic growth at 43.8 ug/ml after 20 hrs relative to control; type: functional
[10] = test system: Staphylococcus epidermidis; test: Antibacterial activity against Staphylococcus epidermidis ATCC 35547 assessed as effect on planktonic growth at 2.73 ug/ml after 20 hrs relative to control; type: functional
Pseudomonas aeruginosa [11] = test: Antibacterial activity against Pseudomonas aeruginosa ATCC 27853 assessed as effect on planktonic growth at 21.9 ug/ml after 20 hrs relative to control; type: functional
Streptococcus mutans [12] = test: Antibacterial activity against Streptococcus mutans ATCC 25175 assessed as effect on planktonic growth at 10.9 ug/ml after 20 hrs relative to control; type: functional
Pseudomonas aeruginosa [13] = test: Antibacterial activity against Pseudomonas aeruginosa ATCC 27853 assessed as effect on planktonic growth at 5.5 ug/ml after 20 hrs relative to control; type: functional
Staphylococcus aureus [14] = test: Antibacterial activity against Staphylococcus aureus ATCC 25923 assessed as effect on planktonic growth at 87.5 ug/ml after 20 hrs relative to control; type: functional
[15] = test system: Staphylococcus epidermidis; test: Antibacterial activity against Staphylococcus epidermidis ATCC 35547 assessed as effect on planktonic growth at 10.9 ug/ml after 20 hrs relative to control; type: functional
Streptococcus mutans [16] = test: Antibacterial activity against Streptococcus mutans ATCC 25175 assessed as effect on planktonic growth at 1.37 ug/ml after 20 hrs relative to control; type: functional
Streptococcus mutans [17] = test: Antibacterial activity against Streptococcus mutans ATCC 25175 assessed as effect on planktonic growth at 21.9 ug/ml after 20 hrs relative to control; type: functional
Staphylococcus aureus [18] = test: Antibacterial activity against Staphylococcus aureus ATCC 25923 assessed as effect on planktonic growth at 43.8 ug/ml after 20 hrs relative to control; type: functional
Staphylococcus aureus [19] = test: Antibacterial activity against Staphylococcus aureus ATCC 25923 assessed as effect on planktonic growth at 2.73 ug/ml after 20 hrs relative to control; type: functional
[20] = test system: Staphylococcus epidermidis; test: Antibacterial activity against Staphylococcus epidermidis ATCC 35547 assessed as effect on planktonic growth at 0.68 ug/ml after 20 hrs relative to control; type: functional
Staphylococcus aureus [21] = test: Antibacterial activity against Staphylococcus aureus ATCC 25923 assessed as effect on planktonic growth at 0.34 ug/ml after 20 hrs relative to control; type: functional
Staphylococcus aureus [22] = test: Antibacterial activity against Staphylococcus aureus ATCC 25923 assessed as effect on planktonic growth at 5.5 ug/ml after 20 hrs relative to control; type: functional
Streptococcus mutans [23] = test: Antibacterial activity against Streptococcus mutans ATCC 25175 assessed as effect on planktonic growth at 5.5 ug/ml after 20 hrs relative to control; type: functional
[24] = test system: Staphylococcus epidermidis; test: Antibacterial activity against Staphylococcus epidermidis ATCC 35547 assessed as inhibition of biofilm formation after 20 hrs by crystal-violet staining method; type: functional, organism-based; settings: for IC50: ATCC 35547, 20 h
[25] = test system: Staphylococcus epidermidis; test: Antibacterial activity against Staphylococcus epidermidis ATCC 35547 assessed as effect on planktonic growth at 21.9 ug/ml after 20 hrs relative to control; type: functional
Pseudomonas aeruginosa [26] = test: Antibacterial activity against Pseudomonas aeruginosa ATCC 27853 assessed as effect on planktonic growth at 1.37 ug/ml after 20 hrs relative to control; type: functional
Staphylococcus aureus [27] = test: Antibacterial activity against Staphylococcus aureus ATCC 25923 assessed as effect on planktonic growth at 0.68 ug/ml after 20 hrs relative to control; type: functional
Pseudomonas aeruginosa [28] = test: Antibacterial activity against Pseudomonas aeruginosa ATCC 27853 assessed as effect on planktonic growth at 0.34 ug/ml after 20 hrs relative to control; type: functional
Pseudomonas aeruginosa [29] = test: Antibacterial activity against Pseudomonas aeruginosa ATCC 27853 assessed as inhibition of biofilm formation after 20 hrs by crystal-violet staining method; type: functional, organism-based
Pseudomonas aeruginosa [30] = test: Antibacterial activity against Pseudomonas aeruginosa ATCC 27853 assessed as effect on planktonic growth at 0.17 ug/ml after 20 hrs relative to control; type: functional
Pseudomonas aeruginosa [31] = test: Antibacterial activity against Pseudomonas aeruginosa ATCC 27853 assessed as effect on planktonic growth at 10.9 ug/ml after 20 hrs relative to control; type: functional
[32] = test system: Staphylococcus epidermidis; test: Antibacterial activity against Staphylococcus epidermidis ATCC 35547 assessed as effect on planktonic growth at 87.5 ug/ml after 20 hrs relative to control; type: functional
Streptococcus mutans [33] = test: Antibacterial activity against Streptococcus mutans ATCC 25175 assessed as effect on planktonic growth at 2.73 ug/ml after 20 hrs relative to control; type: functional
Pseudomonas aeruginosa [34] = test: Antibacterial activity against Pseudomonas aeruginosa ATCC 27853 assessed as effect on planktonic growth at 2.73 ug/ml after 20 hrs relative to control; type: functional
[35] = test system: Staphylococcus epidermidis; test: Antibacterial activity against Staphylococcus epidermidis ATCC 35547 assessed as effect on planktonic growth at 0.34 ug/ml after 20 hrs relative to control; type: functional
Streptococcus mutans [36] = test: Antibacterial activity against Streptococcus mutans ATCC 25175 assessed as effect on planktonic growth at 0.17 ug/ml after 20 hrs relative to control; type: functional
Streptococcus mutans [37] = test: Antibacterial activity against Streptococcus mutans ATCC 25175 assessed as effect on planktonic growth at 87.5 ug/ml after 20 hrs relative to control; type: functional
Staphylococcus aureus [38] = test: Antibacterial activity against Staphylococcus aureus ATCC 25923 assessed as effect on planktonic growth at 21.9 ug/ml after 20 hrs relative to control; type: functional
Streptococcus mutans [39] = test: Antibacterial activity against Streptococcus mutans ATCC 25175 assessed as effect on planktonic growth at 0.68 ug/ml after 20 hrs relative to control; type: functional
[40] = test system: Staphylococcus epidermidis; test: Antibacterial activity against Staphylococcus epidermidis ATCC 35547 assessed as effect on planktonic growth at 43.8 ug/ml after 20 hrs relative to control; type: functional
Pseudomonas aeruginosa [41] = test: Antibacterial activity against Pseudomonas aeruginosa ATCC 27853 assessed as effect on planktonic growth at 87.5 ug/ml after 20 hrs relative to control; type: functional
Pseudomonas aeruginosa [42] = test: Antibacterial activity against Pseudomonas aeruginosa ATCC 27853 assessed as effect on planktonic growth at 0.68 ug/ml after 20 hrs relative to control; type: functional

IC50 [24]: 13.3 µg/mL (≈ 22.6 µM)
Structure (SMILES): COc1ccc(Br)cc1C1=C(Br)C(=O)N(CC(C)C)C1(O)Cc1ccc(Br)cc1 (configuration not stated)
Activity [1]: 8%
Activity (Staphylococcus aureus [2]): 1.1%
Activity (Staphylococcus aureus [3]): -11.3%
Activity (Staphylococcus aureus [4]): -14.8%
Activity [5]: 2.1%
Activity (Streptococcus mutans [6]): -7%
Activity (Streptococcus mutans [7]): -17.9%
Activity [8]: -2.4%
Activity (Pseudomonas aeruginosa [9]): 63.9%
Activity [10]: 4.8%
Activity (Pseudomonas aeruginosa [11]): 58.3%
Activity (Streptococcus mutans [12]): -8%
Activity (Pseudomonas aeruginosa [13]): 58.3%
Activity (Staphylococcus aureus [14]): 7.4%
Activity [15]: 11.2%
Activity (Streptococcus mutans [16]): 4%
Activity (Streptococcus mutans [17]): -13.7%
Activity (Staphylococcus aureus [18]): -13.7%
Activity (Staphylococcus aureus [19]): -17.9%
Activity [20]: -5.4%
Activity (Staphylococcus aureus [21]): -3.4%
Activity (Staphylococcus aureus [22]): -9%
Activity (Streptococcus mutans [23]): -3%
inhibition [24]: Dose-dependent effect
Activity [25]: 55.8%
Activity (Pseudomonas aeruginosa [26]): -4.5%
Activity (Staphylococcus aureus [27]): -10.8%
Activity (Pseudomonas aeruginosa [28]): -5.7%
inhibition (Pseudomonas aeruginosa [29]): Dose-dependent effect
Activity (Pseudomonas aeruginosa [30]): -4%
Activity (Pseudomonas aeruginosa [31]): 64.1%
Activity [32]: 29.8%
Activity (Streptococcus mutans [33]): -6%
Activity (Pseudomonas aeruginosa [34]): 0.8%
Activity [35]: 4.3%
Activity (Streptococcus mutans [36]): -13.2%
Activity (Streptococcus mutans [37]): 0.2%
Activity (Staphylococcus aureus [38]): -15.6%
Activity (Streptococcus mutans [39]): -8%
Activity [40]: 43.6%
Activity (Pseudomonas aeruginosa [41]): 39.4%
Activity (Pseudomonas aeruginosa [42]): -7%

IC50 [24]: > 87.5 µg/mL
IC50 (Pseudomonas aeruginosa [29]; ATCC 27853, 20 h): 1.7 µg/mL (≈ 4.03 µM)
Structure (SMILES): COc1cccc(/C=C2\OC(=O)C(Br)=C2c2cc(Cl)ccc2OC)c1
Activity [1]: -4.7%
Activity (Staphylococcus aureus [2]): 10.3%
Activity (Staphylococcus aureus [3]): 43.1%
Activity (Staphylococcus aureus [4]): 52.1%
Activity [5]: 3.7%
Activity (Streptococcus mutans [6]): 25.7%
Activity (Streptococcus mutans [7]): 22.7%
Activity [8]: -4.6%
Activity (Pseudomonas aeruginosa [9]): -8.7%
Activity [10]: -2.4%
Activity (Pseudomonas aeruginosa [11]): -11.6%
Activity (Streptococcus mutans [12]): 18.8%
Activity (Pseudomonas aeruginosa [13]): -19.4%
Activity (Staphylococcus aureus [14]): 134.6%
Activity [15]: -5.5%
Activity (Streptococcus mutans [16]): 34.3%
Activity (Streptococcus mutans [17]): 14%
Activity (Staphylococcus aureus [18]): 80.5%
Activity (Staphylococcus aureus [19]): 39.5%
Activity [20]: -1.5%
Activity (Staphylococcus aureus [21]): 30.5%
Activity (Staphylococcus aureus [22]): 34.4%
Activity (Streptococcus mutans [23]): 19.7%
inhibition [24]: Dose-dependent effect
Activity [25]: -1.3%
Activity (Pseudomonas aeruginosa [26]): -7.3%
Activity (Staphylococcus aureus [27]): 47.2%
Activity (Pseudomonas aeruginosa [28]): 0.5%
inhibition (Pseudomonas aeruginosa [29]): Dose-dependent effect
Activity (Pseudomonas aeruginosa [30]): -1.2%
Activity (Pseudomonas aeruginosa [31]): -14.8%
Activity [32]: 10.6%
Activity (Streptococcus mutans [33]): 37.3%
Activity (Pseudomonas aeruginosa [34]): -16%
Activity [35]: 0.1%
Activity (Streptococcus mutans [36]): 26.9%
Activity (Streptococcus mutans [37]): 49%
Activity (Staphylococcus aureus [38]): 47.2%
Activity (Streptococcus mutans [39]): 23.9%
Activity [40]: 5.6%
Activity (Pseudomonas aeruginosa [41]): -9.5%
Activity (Pseudomonas aeruginosa [42]): 0.7%
